Biological target: Polθ protein (amino acids 2-2590) (Homo sapiens, UniProt O75417)
Assay: Polθ full length enzyme potency assay (PicoGreen)
Details: Polθ IC50 (nM), full length N-His, C-term FLAG tagged Polθ, PicoGreen fluorescence, 12 point concentration response

Chain of Polθ protein (amino acids 2-2590) (O75417 2-2590): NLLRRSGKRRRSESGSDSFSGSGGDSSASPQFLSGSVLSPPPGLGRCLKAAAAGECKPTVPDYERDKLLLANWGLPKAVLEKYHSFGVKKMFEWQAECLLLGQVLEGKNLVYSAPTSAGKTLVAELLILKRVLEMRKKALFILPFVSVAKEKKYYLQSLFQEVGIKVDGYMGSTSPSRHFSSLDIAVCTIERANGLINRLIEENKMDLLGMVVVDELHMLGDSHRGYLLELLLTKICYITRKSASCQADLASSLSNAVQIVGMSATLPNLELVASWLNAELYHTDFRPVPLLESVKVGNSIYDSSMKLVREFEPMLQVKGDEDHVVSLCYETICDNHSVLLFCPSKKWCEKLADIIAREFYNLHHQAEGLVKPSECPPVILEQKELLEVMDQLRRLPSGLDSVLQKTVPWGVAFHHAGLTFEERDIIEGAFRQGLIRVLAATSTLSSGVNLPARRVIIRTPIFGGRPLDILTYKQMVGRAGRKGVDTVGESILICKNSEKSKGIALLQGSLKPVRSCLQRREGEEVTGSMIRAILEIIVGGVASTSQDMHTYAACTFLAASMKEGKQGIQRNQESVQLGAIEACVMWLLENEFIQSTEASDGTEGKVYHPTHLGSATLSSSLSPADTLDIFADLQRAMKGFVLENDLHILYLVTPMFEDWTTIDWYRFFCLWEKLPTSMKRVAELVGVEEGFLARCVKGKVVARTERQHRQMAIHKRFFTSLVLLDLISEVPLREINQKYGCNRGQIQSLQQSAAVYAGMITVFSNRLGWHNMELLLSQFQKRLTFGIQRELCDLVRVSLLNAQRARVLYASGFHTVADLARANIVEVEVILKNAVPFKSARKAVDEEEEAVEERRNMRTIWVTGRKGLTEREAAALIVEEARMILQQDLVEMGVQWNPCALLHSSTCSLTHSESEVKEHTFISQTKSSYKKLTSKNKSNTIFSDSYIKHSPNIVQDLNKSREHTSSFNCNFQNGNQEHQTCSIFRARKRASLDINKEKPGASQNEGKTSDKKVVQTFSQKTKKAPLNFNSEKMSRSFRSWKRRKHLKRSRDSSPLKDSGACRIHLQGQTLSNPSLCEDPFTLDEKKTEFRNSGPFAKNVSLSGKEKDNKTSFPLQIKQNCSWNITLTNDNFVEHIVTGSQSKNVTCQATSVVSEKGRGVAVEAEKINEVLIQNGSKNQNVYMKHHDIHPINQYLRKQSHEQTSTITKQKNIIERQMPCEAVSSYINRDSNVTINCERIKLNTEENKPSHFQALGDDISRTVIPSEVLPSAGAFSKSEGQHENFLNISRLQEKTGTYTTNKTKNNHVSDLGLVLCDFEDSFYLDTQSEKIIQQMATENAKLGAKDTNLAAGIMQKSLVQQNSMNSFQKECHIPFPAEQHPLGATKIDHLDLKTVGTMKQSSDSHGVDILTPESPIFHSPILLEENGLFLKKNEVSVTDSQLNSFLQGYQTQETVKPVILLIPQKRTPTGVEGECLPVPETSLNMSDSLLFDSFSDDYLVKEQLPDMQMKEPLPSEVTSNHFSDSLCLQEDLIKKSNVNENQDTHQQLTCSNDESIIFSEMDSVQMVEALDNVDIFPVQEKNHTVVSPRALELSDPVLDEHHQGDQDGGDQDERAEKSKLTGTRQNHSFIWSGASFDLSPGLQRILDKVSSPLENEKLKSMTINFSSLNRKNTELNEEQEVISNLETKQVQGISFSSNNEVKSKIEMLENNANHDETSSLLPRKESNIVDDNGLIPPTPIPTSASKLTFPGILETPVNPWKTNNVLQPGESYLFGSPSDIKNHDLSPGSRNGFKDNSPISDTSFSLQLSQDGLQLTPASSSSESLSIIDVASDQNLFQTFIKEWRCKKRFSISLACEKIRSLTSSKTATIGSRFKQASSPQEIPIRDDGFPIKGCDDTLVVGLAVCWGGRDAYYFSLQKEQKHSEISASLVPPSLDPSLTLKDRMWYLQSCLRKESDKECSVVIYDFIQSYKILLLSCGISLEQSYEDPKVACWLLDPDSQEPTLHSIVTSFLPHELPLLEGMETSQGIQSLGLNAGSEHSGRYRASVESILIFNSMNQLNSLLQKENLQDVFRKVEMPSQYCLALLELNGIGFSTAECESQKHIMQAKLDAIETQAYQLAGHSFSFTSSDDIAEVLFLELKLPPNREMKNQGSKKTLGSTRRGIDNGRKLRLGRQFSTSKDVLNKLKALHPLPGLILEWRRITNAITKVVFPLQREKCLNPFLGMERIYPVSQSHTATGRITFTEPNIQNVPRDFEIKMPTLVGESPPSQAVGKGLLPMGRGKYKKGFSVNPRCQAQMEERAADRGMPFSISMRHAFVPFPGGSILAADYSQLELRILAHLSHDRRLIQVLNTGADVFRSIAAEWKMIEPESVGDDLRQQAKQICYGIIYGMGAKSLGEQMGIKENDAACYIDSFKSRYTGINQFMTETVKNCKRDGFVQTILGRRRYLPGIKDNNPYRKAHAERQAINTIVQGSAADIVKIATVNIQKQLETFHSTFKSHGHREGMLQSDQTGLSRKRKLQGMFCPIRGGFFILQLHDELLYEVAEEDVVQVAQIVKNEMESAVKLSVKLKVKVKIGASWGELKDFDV

SMILES	IC50 [nM]
Cc1cc(C(F)(F)F)cc(N2C(=O)N(CCN3CCN(CCO)CC3)C[C@H]2C(=O)N(C)c2ccc(F)c(Cl)c2F)n1 [Example 209, (S)-N-(3-Chloro-2,4-difluorophenyl)-1-(2-(4-(2-hydroxyethyl)piperazin-1-yl)ethyl)-N-methyl-3-(6-methyl-4-(trifluoromethyl)pyridin-2-yl)-2-oxoimidazolidine-4-carboxamide]	8
C=C(C)c1cc(C)nc(N2C(=O)OC[C@H]2C(=O)N(C)c2ccc(F)c(Cl)c2)c1 [Example 117, (S)—N-(3-Chloro-4-fluorophenyl)-N-methyl-3-(6-methyl-4-(prop-1-en-2-yl)pyridin-2-yl)-2-oxooxazolidine-4-carboxamide]	61
Cc1cc(C(F)(F)F)c(C#N)c(N2[C@@H](C)CC[C@H]2C(=O)N(C)c2ccc(F)c(Cl)c2)n1 [Example 242, (2S,5S)—N-(3-Chloro-4-fluorophenyl)-1-(3-cyano-6-methyl-4-(trifluoromethyl)pyridin-2-yl)-N,5-dimethylpyrrolidine-2-carboxamide]	311
Cc1cc(C(F)(F)F)cc(N2C(=O)N(CC(O)CO)C[C@H]2C(=O)N(c2ccc(F)c(Cl)c2)C2CC2)n1 (stereo partly drawn) [Example 231, (4S)—N-(3-Chloro-4-fluorophenyl)-N-cyclopropyl-1-(2,3-dihydroxypropyl)-3-(6-methyl-4-(trifluoromethyl)pyridin-2-yl)-2-oxoimidazolidine-4-carboxamide]	94
CCN(C(=O)[C@@H]1C[C@H](N(C)C2CNC(=O)C2)CN1c1cc(C(F)(F)F)cc(C)n1)c1ccc(F)c(F)c1 (stereo partly drawn) [Example 145, (2S,4S)-N-(3,4-Difluorophenyl)-N-ethyl-4-(methyl(5-oxopyrrolidin-3-yl)amino)-1-(6-methyl-4-(trifluoromethyl)pyridin-2-yl)pyrrolidine-2-carboxamide]	708

The next lines start with the values.

IC50 [nM]	SMILES
7	Cc1cc(C(F)(F)F)cc(N2C(=O)N(CC(O)CN3CCOCC3)C[C@H]2C(=O)N(C)c2ccc(F)c(Cl)c2F)n1 (stereo partly drawn) [Example 217, (4S)—N-(3-Chloro-2,4-difluorophenyl)-1-(2-hydroxy-3-morpholinopropyl)-N-methyl-3-(6-methyl-4-(trifluoromethyl)pyridin-2-yl)-2-oxoimidazolidine-4-carboxamide]
26	Cc1cc(C(F)(F)F)cc(N2C(=O)N(CCN3CCC3)C[C@H]2C(=O)N(C)c2ccc(F)c(Cl)c2F)n1 [Example 201, (S)-1-(2-(Azetidin-1-yl)ethyl)-N-(3-chloro-2,4-difluorophenyl)-N-methyl-3-(6-methyl-4-(trifluoromethyl)-pyridin-2-yl)-2-oxoimidazolidine-4-carboxamide]
11	Cc1cc(C(F)(F)F)cc(N2C(=O)OC[C@H]2C(=O)N(C)c2ccc3cc[nH]c3c2)n1 [Example 126, (S)—N-(1H-Indol-6-yl)-N-methyl-3-(6-methyl-4-(trifluoromethyl)pyridin-2-yl)-2-oxooxazolidine-4-carboxamide]
167	Cc1cc(OC(F)F)cc(N2C(=O)OC[C@H]2C(=O)N(C)c2ccc(F)c(Cl)c2)n1 [Example 121, (S)—N-(3-Chloro-4-fluorophenyl)-3-(4-(difluoromethoxy)-6-methylpyridin-2-yl)-N-methyl-2-oxooxazolidine-4-carboxamide]
2	Cc1cc(C(F)(F)F)cc(N2C(=O)NC[C@H]2C(=O)N(C)c2ccc(F)c(Cl)c2F)n1 [Example 158, (S)—N-(3-Chloro-2,4-difluorophenyl)-N-methyl-3-(6-methyl-4-(trifluoromethyl)pyridin-2-yl)-2-oxoimidazolidine-4-carboxamide]
30	Cc1cccc(N(C)C(=O)[C@@H]2C[C@H](O)CN2c2nc(C)cc(C(C)C)c2C#N)c1 [Example 33, (2S,4S)-1-(3-Cyano-4-isopropyl-6-methylpyridin-2-yl)-4-hydroxy-N-methyl-N-(m-tolyl)pyrrolidine-2-carboxamide]

From patent US12358886B2, “Heterocyclic compounds for use in the treatment of cancer” (Artios Pharma Limited, priority 2019, dated 2025)
